Results as given in ChEMBL document CHEMBL3885861, “Open TG-GATES”.

Species on record: Rattus norvegicus
Assay: Open TG-GATES - Regimen: Daily Repeat
Type: toxicity, organism-based, Sprague-Dawley
Design: regimen Daily Repeat, gender Male, age 6 weeks
Conditions: in vivo, po, route gavage; for APTT / Bas / Eos / Fbg / Hb / Ht / Lym / MCH / MCHC / MCV / Mono / Neu / PT / Plat / RBC / Ret / WBC: tissue Blood; for KIDNEY_L / KIDNEY_R / KIDNEY_TOTAL: tissue Kidney; for LIVER: tissue Liver; for A/G / ALP / ALT / AST / BUN / CRE / Ca / Cl / DBIL / GLC / IP / K / LDH / Na / PL / RALB / TBIL / TC / TG / TP / gamma-GTP: tissue Plasma
[1] = 0 mg/kg, 72 h, dose level Control, time 3 day
[2] = 0 mg/kg, […], dose level Control, time 7 day
[3] = 0 mg/kg, […], dose level Control, time 14 day
[4] = 0 mg/kg, […], dose level Control, time 28 day
[5] = 100 mg/kg, 72 h, dose level Low, time 3 day
[6] = 100 mg/kg, […], dose level Low, time 7 day
[7] = 100 mg/kg, […], dose level Low, time 14 day
[8] = 100 mg/kg, […], dose level Low, time 28 day

## CC(C)(S)[C@@H](N)C(=O)O [PENICILLAMINE]
[1]
  TERMINAL_BW: 235.9 g
  APTT: 15.9 s
  Bas: 0.2%
  Eos: 0.6%
  Fbg: 305 mg/dL
  Hb: 13.7 g/dL
  Ht: 41.9%
  Lym: 75.8%
  MCH: 21.1 pg
  MCHC: 32.7%
  MCV: 64.6 fL
  Mono: 3%
  Neu: 19.6%
  PT: 13.8 s
  Plat: 131.2 x10_4/uL
  RBC: 648.8 x10_4/ul
  Ret: 7.1%
  WBC: 113.2 x10_2/uL
  KIDNEY_L: 0.9 g
  KIDNEY_R: 0.9 g
  KIDNEY_TOTAL: 1.9 g
  LIVER: 11.2 g
  A/G: 0.9
  ALP: 1527 IU/L
  ALT: 43.4 IU/L
  AST: 69 IU/L
  BUN: 14.6 mg/dL
  CRE: 0.2 mg/dL
  Ca: 11.1 mg/dL
  Cl: 106.2 meq/L
  DBIL: 0.014 mg/dL
  GLC: 177.8 mg/dL
  IP: 6.8 mg/dL
  K: 4.1 meq/L
  LDH: 84.4 IU/L
  Na: 144.2 meq/L
  PL: 171.8 mg/dL
  RALB: 2.8 g/dL
  TBIL: 0.018 mg/dL
  TC: 90.2 mg/dL
  TG: 118.8 mg/dL
  TP: 5.8 g/dL
  gamma-GTP: 1 IU/L
[2]
  TERMINAL_BW: 275.3 g
  APTT: 17.9 s
  Bas: 0%
  Eos: 1%
  Fbg: 320.4 mg/dL
  Hb: 14.2 g/dL
  Ht: 43.2%
  Lym: 72.8%
  MCH: 21 pg
  MCHC: 32.8%
  MCV: 64.1 fL
  Mono: 2.8%
  Neu: 22.4%
  PT: 13.9 s
  Plat: 121.1 x10_4/uL
  RBC: 674.8 x10_4/ul
  Ret: 5.9%
  WBC: 98.3 x10_2/uL
  KIDNEY_L: 1.1 g
  KIDNEY_R: 1.1 g
  KIDNEY_TOTAL: 2.2 g
  LIVER: 13 g
  A/G: 0.9
  ALP: 1428 IU/L
  ALT: 45.4 IU/L
  AST: 68.6 IU/L
  BUN: 15 mg/dL
  CRE: 0.2 mg/dL
  Ca: 10.9 mg/dL
  Cl: 105.2 meq/L
  DBIL: 0.018 mg/dL
  GLC: 189.8 mg/dL
  IP: 6.6 mg/dL
  K: 4 meq/L
  LDH: 71.6 IU/L
  Na: 142.2 meq/L
  PL: 159 mg/dL
  RALB: 2.8 g/dL
  TBIL: 0.028 mg/dL
  TC: 74.4 mg/dL
  TG: 131.2 mg/dL
  TP: 5.8 g/dL
  gamma-GTP: 0.8 IU/L
[3]
  TERMINAL_BW: 335.9 g
  APTT: 19.2 s
  Bas: 0%
  Eos: 1.2%
  Fbg: 292.4 mg/dL
  Hb: 14.8 g/dL
  Ht: 43.7%
  Lym: 80.4%
  MCH: 20.4 pg
  MCHC: 33.9%
  MCV: 60.2 fL
  Mono: 2%
  Neu: 15.8%
  PT: 14.2 s
  Plat: 122.3 x10_4/uL
  RBC: 724.8 x10_4/ul
  Ret: 4.5%
  WBC: 90.4 x10_2/uL
  KIDNEY_L: 1.3 g
  KIDNEY_R: 1.3 g
  KIDNEY_TOTAL: 2.6 g
  LIVER: 15.3 g
  A/G: 0.9
  ALP: 1246.2 IU/L
  ALT: 41.4 IU/L
  AST: 68.2 IU/L
  BUN: 16.2 mg/dL
  CRE: 0.2 mg/dL
  Ca: 10.9 mg/dL
  Cl: 105.2 meq/L
  DBIL: 0.01 mg/dL
  GLC: 189 mg/dL
  IP: 6.2 mg/dL
  K: 4.2 meq/L
  LDH: 107.4 IU/L
  Na: 143 meq/L
  PL: 155.6 mg/dL
  RALB: 2.8 g/dL
  TBIL: 0.024 mg/dL
  TC: 71.4 mg/dL
  TG: 150.4 mg/dL
  TP: 6.1 g/dL
  gamma-GTP: 0.8 IU/L
[4]
  TERMINAL_BW: 405.5 g
  APTT: 18.4 s
  Bas: 0%
  Eos: 1.4%
  Fbg: 300.8 mg/dL
  Hb: 15.6 g/dL
  Ht: 45.4%
  Lym: 79.2%
  MCH: 19.8 pg
  MCHC: 34.2%
  MCV: 58 fL
  Mono: 2.2%
  Neu: 16.2%
  PT: 14.1 s
  Plat: 103.8 x10_4/uL
  RBC: 783.8 x10_4/ul
  Ret: 2.6%
  WBC: 93.7 x10_2/uL
  KIDNEY_L: 1.4 g
  KIDNEY_R: 1.4 g
  KIDNEY_TOTAL: 2.8 g
  LIVER: 16.3 g
  A/G: 0.9
  ALP: 945.4 IU/L
  ALT: 29.6 IU/L
  AST: 58.4 IU/L
  BUN: 15.4 mg/dL
  CRE: 0.3 mg/dL
  Ca: 10.9 mg/dL
  Cl: 105.8 meq/L
  DBIL: 0.008 mg/dL
  GLC: 185 mg/dL
  IP: 6 mg/dL
  K: 3.6 meq/L
  LDH: 51.6 IU/L
  Na: 144 meq/L
  PL: 147.4 mg/dL
  RALB: 2.9 g/dL
  TBIL: 0.052 mg/dL
  TC: 67.6 mg/dL
  TG: 140.8 mg/dL
  TP: 6.3 g/dL
  gamma-GTP: 1.2 IU/L
[5]
  TERMINAL_BW: 236.4 g
  APTT: 16.9 s
  Bas: 0%
  Eos: 1%
  Fbg: 294.8 mg/dL
  Hb: 13.7 g/dL
  Ht: 41.6%
  Lym: 78.8%
  MCH: 20.9 pg
  MCHC: 33%
  MCV: 63.3 fL
  Mono: 2.8%
  Neu: 16.6%
  PT: 14.1 s
  Plat: 122 x10_4/uL
  RBC: 658.2 x10_4/ul
  Ret: 7.4%
  WBC: 84.7 x10_2/uL
  KIDNEY_L: 1 g
  KIDNEY_R: 1 g
  KIDNEY_TOTAL: 1.9 g
  LIVER: 10.8 g
  A/G: 0.9
  ALP: 1491 IU/L
  ALT: 40.2 IU/L
  AST: 69.8 IU/L
  BUN: 13 mg/dL
  CRE: 0.2 mg/dL
  Ca: 10.8 mg/dL
  Cl: 106.6 meq/L
  DBIL: 0.014 mg/dL
  GLC: 183.8 mg/dL
  IP: 7 mg/dL
  K: 4.1 meq/L
  LDH: 85 IU/L
  Na: 143.8 meq/L
  PL: 156 mg/dL
  RALB: 2.7 g/dL
  TBIL: 0.028 mg/dL
  TC: 80.8 mg/dL
  TG: 114.8 mg/dL
  TP: 5.7 g/dL
  gamma-GTP: 1.2 IU/L
[6]
  TERMINAL_BW: 276.9 g
  APTT: 17.9 s
  Bas: 0.2%
  Eos: 1%
  Fbg: 305.6 mg/dL
  Hb: 13.9 g/dL
  Ht: 42.4%
  Lym: 80.6%
  MCH: 20.7 pg
  MCHC: 32.9%
  MCV: 63 fL
  Mono: 2.4%
  Neu: 14.6%
  PT: 14.2 s
  Plat: 127.2 x10_4/uL
  RBC: 674.2 x10_4/ul
  Ret: 5.7%
  WBC: 102.7 x10_2/uL
  KIDNEY_L: 1.1 g
  KIDNEY_R: 1.1 g
  KIDNEY_TOTAL: 2.3 g
  LIVER: 12.9 g
  A/G: 0.9
  ALP: 1699 IU/L
  ALT: 43.4 IU/L
  AST: 66.2 IU/L
  BUN: 17 mg/dL
  CRE: 0.2 mg/dL
  Ca: 10.9 mg/dL
  Cl: 104.2 meq/L
  DBIL: 0.01 mg/dL
  GLC: 184 mg/dL
  IP: 7.5 mg/dL
  K: 3.9 meq/L
  LDH: 80.6 IU/L
  Na: 142.2 meq/L
  PL: 167.8 mg/dL
  RALB: 2.7 g/dL
  TBIL: 0.028 mg/dL
  TC: 85.2 mg/dL
  TG: 116.8 mg/dL
  TP: 5.8 g/dL
  gamma-GTP: 1.2 IU/L
[7]
  TERMINAL_BW: 325.3 g
  APTT: 17.2 s
  Bas: 0%
  Eos: 1%
  Fbg: 300.8 mg/dL
  Hb: 14.8 g/dL
  Ht: 43.6%
  Lym: 82.4%
  MCH: 20.7 pg
  MCHC: 34%
  MCV: 60.9 fL
  Mono: 1.8%
  Neu: 14%
  PT: 13.8 s
  Plat: 111.4 x10_4/uL
  RBC: 716 x10_4/ul
  Ret: 3.9%
  WBC: 83.6 x10_2/uL
  KIDNEY_L: 1.3 g
  KIDNEY_R: 1.3 g
  KIDNEY_TOTAL: 2.6 g
  LIVER: 14.2 g
  A/G: 0.9
  ALP: 1443.4 IU/L
  ALT: 42.8 IU/L
  AST: 61.6 IU/L
  BUN: 15 mg/dL
  CRE: 0.2 mg/dL
  Ca: 10.9 mg/dL
  Cl: 104.2 meq/L
  DBIL: 0.012 mg/dL
  GLC: 194.4 mg/dL
  IP: 6.7 mg/dL
  K: 3.9 meq/L
  LDH: 89 IU/L
  Na: 142.4 meq/L
  PL: 178.2 mg/dL
  RALB: 2.8 g/dL
  TBIL: 0.028 mg/dL
  TC: 85 mg/dL
  TG: 171.6 mg/dL
  TP: 6 g/dL
  gamma-GTP: 1 IU/L
[8]
  TERMINAL_BW: 410.3 g
  APTT: 18.8 s
  Bas: 0%
  Eos: 1.6%
  Fbg: 313 mg/dL
  Hb: 16.2 g/dL
  Ht: 46.8%
  Lym: 82.8%
  MCH: 20 pg
  MCHC: 34.6%
  MCV: 57.7 fL
  Mono: 1.8%
  Neu: 13%
  PT: 14.1 s
  Plat: 101.2 x10_4/uL
  RBC: 812.4 x10_4/ul
  Ret: 2.2%
  WBC: 93.4 x10_2/uL
  KIDNEY_L: 1.4 g
  KIDNEY_R: 1.4 g
  KIDNEY_TOTAL: 2.8 g
  LIVER: 15.7 g
  A/G: 0.9
  ALP: 1085 IU/L
  ALT: 35 IU/L
  AST: 57.2 IU/L
  BUN: 16.6 mg/dL
  CRE: 0.3 mg/dL
  Ca: 10.9 mg/dL
  Cl: 105.8 meq/L
  DBIL: 0.01 mg/dL
  GLC: 179.4 mg/dL
  IP: 6.2 mg/dL
  K: 3.9 meq/L
  LDH: 58 IU/L
  Na: 144 meq/L
  PL: 159.8 mg/dL
  RALB: 2.9 g/dL
  TBIL: 0.066 mg/dL
  TC: 77.2 mg/dL
  TG: 139.2 mg/dL
  TP: 6.3 g/dL
  gamma-GTP: 1.2 IU/L
